# According to ChEMBL document CHEMBL1201862, “PubChem BioAssay data set” (2004):
# Calls of active or inactive are those of the source.
# Experiments:
# [1] = biological target: T1, Alkaline phosphatase, tissue-nonspecific isozyme (Homo sapiens, UniProt P05186); test: activation of tissue-nonspecific alkaline phosphatase – biochemical, TNAP isozyme, human IAP uHTS hits, selectivity assay for human IAP activator project, dose response (AID 488886); type: functional;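 also: potency of compounds raising TNAP activity as a selectivity check on IAP activators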
# T1 sequence (P05186 whole entry): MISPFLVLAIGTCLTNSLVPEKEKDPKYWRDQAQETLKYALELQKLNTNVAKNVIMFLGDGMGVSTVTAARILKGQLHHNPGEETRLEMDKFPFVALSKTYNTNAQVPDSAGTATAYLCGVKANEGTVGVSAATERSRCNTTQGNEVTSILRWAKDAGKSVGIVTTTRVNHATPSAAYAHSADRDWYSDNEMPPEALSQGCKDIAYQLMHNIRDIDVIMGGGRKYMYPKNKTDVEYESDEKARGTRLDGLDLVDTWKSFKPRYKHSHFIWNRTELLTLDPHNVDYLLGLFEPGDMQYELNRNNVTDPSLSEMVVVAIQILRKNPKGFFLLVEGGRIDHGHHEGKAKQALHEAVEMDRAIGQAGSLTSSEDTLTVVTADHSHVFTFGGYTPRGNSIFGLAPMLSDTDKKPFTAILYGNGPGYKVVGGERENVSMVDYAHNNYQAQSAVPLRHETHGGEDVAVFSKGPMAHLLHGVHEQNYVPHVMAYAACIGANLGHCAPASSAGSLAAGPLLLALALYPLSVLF
# [2] = biological target: T2, Intestinal-type alkaline phosphatase (Homo sapiens, UniProt P09923); test: human intestinal alkaline phosphatase activators, dose response, biochemical, luminescence, uHTS hits (AID 463120); type: functional
# T2 sequence (P09923 whole entry): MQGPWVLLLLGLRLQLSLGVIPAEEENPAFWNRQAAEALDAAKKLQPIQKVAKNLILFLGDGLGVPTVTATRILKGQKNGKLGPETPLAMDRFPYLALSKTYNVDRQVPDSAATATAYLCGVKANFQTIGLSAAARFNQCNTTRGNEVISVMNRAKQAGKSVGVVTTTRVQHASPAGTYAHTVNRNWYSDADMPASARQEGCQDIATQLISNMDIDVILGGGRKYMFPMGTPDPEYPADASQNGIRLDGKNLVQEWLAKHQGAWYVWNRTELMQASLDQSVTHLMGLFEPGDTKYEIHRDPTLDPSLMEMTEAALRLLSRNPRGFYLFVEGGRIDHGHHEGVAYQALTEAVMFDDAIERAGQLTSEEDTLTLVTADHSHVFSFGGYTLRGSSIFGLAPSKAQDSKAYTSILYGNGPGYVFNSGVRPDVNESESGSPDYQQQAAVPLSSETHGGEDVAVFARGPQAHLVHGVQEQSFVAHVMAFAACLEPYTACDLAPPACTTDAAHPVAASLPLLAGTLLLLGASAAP
# [3] = biological target: Intestinal-type alkaline phosphatase (Mus musculus, UniProt P24822); test: PubChem AID 488875; type: functional
# Chain of Intestinal-type alkaline phosphatase (Mus musculus, UniProt P24822) (P24822 whole entry): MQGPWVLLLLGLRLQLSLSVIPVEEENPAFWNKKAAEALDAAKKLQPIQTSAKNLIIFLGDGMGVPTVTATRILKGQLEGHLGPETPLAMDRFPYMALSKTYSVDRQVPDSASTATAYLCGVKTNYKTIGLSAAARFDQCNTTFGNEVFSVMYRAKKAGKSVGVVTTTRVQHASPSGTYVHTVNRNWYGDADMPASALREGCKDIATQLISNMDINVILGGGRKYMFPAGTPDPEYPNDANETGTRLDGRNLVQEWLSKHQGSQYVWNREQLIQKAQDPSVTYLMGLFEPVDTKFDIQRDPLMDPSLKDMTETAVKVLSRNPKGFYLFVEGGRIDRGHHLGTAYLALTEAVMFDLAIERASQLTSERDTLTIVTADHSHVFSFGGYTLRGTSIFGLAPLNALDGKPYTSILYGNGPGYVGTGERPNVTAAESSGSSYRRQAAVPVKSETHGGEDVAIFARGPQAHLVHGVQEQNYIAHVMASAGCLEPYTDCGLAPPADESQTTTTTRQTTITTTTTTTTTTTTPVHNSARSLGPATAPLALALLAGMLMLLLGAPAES
# [4] = biological target: T2, Intestinal-type alkaline phosphatase; test: activation of human intestinal alkaline phosphatase – biochemical, luminescent, uHTS hits, set 2, dose response (AID 488817); type: functional;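 also: potency of activators that raise enzyme activity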
# [5] = Vero E6 cell cytotoxicity, dose response, cytotoxicity control for non-replicating M. tuberculosis project, secondary assay (AID 492998); type: functional, VeroE6; conditions: Vero C1008
# [6] = Trypanosoma cruzi growth suppression in host cells – NIH3T3 host cells, beta-gal luminescence, confirmation (AID 2044); type: functional, cell-based;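 also: intracellular parasites grown in NIH/3T3 mouse fibroblasts as host cells; luminescent beta-galactosidase reporter signal from transgenic T. cruzi replicating inside host cells; inhibitors lower the luminescence signal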
# [7] = THP-1 cell cytotoxicity, dose response, cytotoxicity control for non-replicating M. tuberculosis project (AID 489025); type: functional
# [8] = biological target: Nuclear receptor subfamily 5 group A member 2 (Homo sapiens, UniProt O00482); type: functional, cell-based;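 also: HEK293T cells transfected with LRH-1 and a StAR promoter luciferase reporter; potency for inhibitors that lower LRH-1 driven reporter light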
# Chain of Nuclear receptor subfamily 5 group A member 2 (O00482 whole entry): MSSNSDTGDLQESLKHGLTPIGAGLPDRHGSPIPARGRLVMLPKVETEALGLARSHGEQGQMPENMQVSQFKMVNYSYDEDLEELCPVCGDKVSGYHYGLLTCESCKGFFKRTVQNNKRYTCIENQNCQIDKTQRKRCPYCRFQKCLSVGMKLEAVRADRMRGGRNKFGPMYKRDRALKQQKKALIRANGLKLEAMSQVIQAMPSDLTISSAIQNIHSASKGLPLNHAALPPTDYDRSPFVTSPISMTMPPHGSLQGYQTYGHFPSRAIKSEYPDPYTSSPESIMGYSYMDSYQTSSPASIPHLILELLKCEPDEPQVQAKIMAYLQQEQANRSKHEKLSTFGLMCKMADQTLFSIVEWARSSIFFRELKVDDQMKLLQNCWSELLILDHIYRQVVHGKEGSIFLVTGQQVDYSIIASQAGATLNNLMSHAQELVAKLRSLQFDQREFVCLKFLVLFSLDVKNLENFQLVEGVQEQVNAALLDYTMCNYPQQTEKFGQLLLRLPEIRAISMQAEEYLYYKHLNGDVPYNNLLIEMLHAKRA
# [9] = microbe, parasite or virus in culture; type: functional; conditions: Mycobacterium tuberculosis
# [10] = NIH3T3 cell viability loss – ATP luminescence, mouse fibroblasts, counter-screen, dose response (AID 2010); type: functional, cell-based;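 also: cells exposed to compound for about 90 hours before reading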
# [11] = nonselective StAR promoter luciferase inhibitors – cell-based, luminescence, luciferase reporter, counter-screen for LRH-1 inverse agonist project, dose response (AID 651969); type: functional
# cells [12] = type: functional
# cells [13] = test: cells
# Steroidogenic factor 1 = Steroidogenic factor 1 (Homo sapiens, UniProt Q13285); test: Counterscreen for inverse agonists of the liver receptor homolog-1 (LRH-1; NR5A2): Luminescence-based cell-based high throughput dose response assay to identify inverse agonists of the Steroidogenic Factor 1 Nuclear Receptor (SF1; NR5A1).; type: functional
# Chain of Steroidogenic factor 1 (Q13285 whole entry): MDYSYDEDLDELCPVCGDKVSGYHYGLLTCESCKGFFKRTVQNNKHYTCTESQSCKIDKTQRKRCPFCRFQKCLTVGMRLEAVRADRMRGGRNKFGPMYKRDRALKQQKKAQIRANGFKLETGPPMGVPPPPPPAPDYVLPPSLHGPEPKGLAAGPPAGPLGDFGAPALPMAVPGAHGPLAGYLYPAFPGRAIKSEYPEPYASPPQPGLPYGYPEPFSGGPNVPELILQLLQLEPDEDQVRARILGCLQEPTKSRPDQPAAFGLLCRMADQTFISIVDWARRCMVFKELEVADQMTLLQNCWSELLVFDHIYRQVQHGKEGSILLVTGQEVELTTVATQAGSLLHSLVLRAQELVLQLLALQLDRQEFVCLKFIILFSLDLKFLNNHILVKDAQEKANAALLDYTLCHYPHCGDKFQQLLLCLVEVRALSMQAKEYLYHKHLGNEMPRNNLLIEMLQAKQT
# [14] = biological target: T3, Tyrosine-protein phosphatase non-receptor type 7 (Homo sapiens, UniProt P35236); type: functional
# T3 sequence (P35236 whole entry): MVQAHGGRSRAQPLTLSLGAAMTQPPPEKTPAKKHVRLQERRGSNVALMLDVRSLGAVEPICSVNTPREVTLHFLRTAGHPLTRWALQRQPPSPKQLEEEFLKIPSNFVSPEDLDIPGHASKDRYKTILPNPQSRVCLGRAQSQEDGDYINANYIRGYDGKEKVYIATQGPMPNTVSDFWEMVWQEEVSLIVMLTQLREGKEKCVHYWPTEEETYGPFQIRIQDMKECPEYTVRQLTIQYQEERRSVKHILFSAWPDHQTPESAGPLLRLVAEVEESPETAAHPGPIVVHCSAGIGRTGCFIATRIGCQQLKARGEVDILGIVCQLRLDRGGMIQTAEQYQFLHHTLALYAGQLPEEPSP
# [15] = biological target: T4, Tyrosine-protein phosphatase non-receptor type 22 (Homo sapiens, UniProt Q9Y2R2); type: functional
# T4 sequence (Q9Y2R2 whole entry): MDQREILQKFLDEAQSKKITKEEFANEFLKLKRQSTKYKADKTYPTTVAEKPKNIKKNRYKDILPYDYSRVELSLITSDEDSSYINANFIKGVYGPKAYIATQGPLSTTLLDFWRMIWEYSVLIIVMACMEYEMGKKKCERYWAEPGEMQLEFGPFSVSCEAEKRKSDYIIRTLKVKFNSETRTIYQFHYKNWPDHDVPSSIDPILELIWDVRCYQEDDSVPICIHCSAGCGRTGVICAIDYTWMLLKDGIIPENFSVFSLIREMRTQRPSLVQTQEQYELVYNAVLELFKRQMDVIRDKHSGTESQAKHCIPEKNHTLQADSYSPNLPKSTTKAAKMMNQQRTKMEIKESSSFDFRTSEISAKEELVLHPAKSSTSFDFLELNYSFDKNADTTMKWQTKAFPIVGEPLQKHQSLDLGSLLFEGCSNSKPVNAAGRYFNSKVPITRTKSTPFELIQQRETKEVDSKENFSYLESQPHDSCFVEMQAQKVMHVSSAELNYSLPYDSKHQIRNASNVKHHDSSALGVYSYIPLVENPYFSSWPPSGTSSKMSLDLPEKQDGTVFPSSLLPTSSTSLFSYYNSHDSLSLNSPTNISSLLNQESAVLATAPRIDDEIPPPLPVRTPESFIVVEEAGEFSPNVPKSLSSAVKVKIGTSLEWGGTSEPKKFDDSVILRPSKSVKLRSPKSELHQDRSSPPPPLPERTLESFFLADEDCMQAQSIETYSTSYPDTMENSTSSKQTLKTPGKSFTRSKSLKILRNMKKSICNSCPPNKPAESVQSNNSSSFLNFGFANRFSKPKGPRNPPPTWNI
# [16] = biological target: T4, Tyrosine-protein phosphatase non-receptor type 22; type: functional; remark: listed apart in the source
# Vero [17] = test: antiviral protection of cells from WNV – synthesized analogs, SAR follow-up (AID 2238); type: functional, cell-based; conditions: Chlorocebus sabaeus
# Vero [18] = test: Vero cell viability after compound exposure – synthesized analogs, set II, cytotoxicity control for West Nile virus antiviral project, SAR follow-up (AID 2402); type: functional; conditions: Chlorocebus sabaeus
# Vero [19] = test: inhibition of WNV-induced cytopathic effect – cell-based, CPE readout (AID 1621); type: functional; conditions: Chlorocebus sabaeus
compound,measurement,setting,value
CN(CC(=O)Nc1ccccc1F)CC(=O)Nc1ccc(F)c(F)c1F,EC50,[1],23.3 µM (active)
same,EC50,[2],15.8 µM (active)
same,EC50,[3],> 100 µM (inactive)
same,EC50,[4],23.6 µM (active)
Cc1onc(-c2c(F)cccc2Cl)c1C(=O)ON=C(N)c1ccc([N+](=O)[O-])o1,CC50,[5],> 20 µM (active)
same,EC50,[6],< 0.1 µM (active)
same,CC50,[7],17.8 µM (active)
same,IC50,[8],0.143 µM (active)
same,CC50,[9],21.2 µM (active)
same,EC50,[10],12.7 µM (active)
same,IC50,[11],35.9 µM (inactive)
same,IC50,cells [12],4.6 µM (active)
same,EC50,cells [13],0.015 µM (active)
same,IC50,Steroidogenic factor 1,0.143 µM (active)
N#CC(C(=O)NC1CCCCC1)=C1CCCCC1,IC50,[14],> 79.4 µM (inactive)
same,IC50,[15],> 79.4 µM (inactive)
same,IC50,[16],> 79.4 µM (inactive)
O=C(CSc1nc2ccccc2c(=O)n1-c1ccc(F)cc1F)Nc1ccc(N2CCOCC2)cc1,IC50,Vero [17],38.1 µM (active)
same,CC50,Vero [18],> 200 µM (active)
same,IC50,Vero [19],26.7 µM (active)
